Assay results published in patent US20220047529A1, “METHODS OF INHIBITION” (University of Canberra, priority 2018, published 2022).

Tested on: form-deprivation myopia
Assay: Form-deprivation myopia (FDM) development in chicks with a translucent diffuser; axial length by A-scan ultrasonography
Conditions: four days; for axial length: diffuser-treated eye
[1] = daily intravitreal injection of 1.5 mM solution
[2] = daily intravitreal injection of 15 mM solution
[3] = daily intravitreal injection of 1.5 mM solution (10 μL), mean±SEM
[4] = daily intravitreal injection of 15 mM solution (10 μL), mean±SEM
[5] = twice daily topical administration of 1.5 mM solution, mean±SEM
[6] = twice daily topical eye drops of 15 mM solution, mean±SEM
[7] = twice daily topical eye drops of 15 mM solution

Procedure: 30 white male cockerel chickens were randomly assigned to one of six treatment groups as defined below (n=5 per group) and were treated for a four day period. • Chicks fitted with a translucent diffuser over their left eye to induce form-deprivation myopia (FDM); • Chicks fitted with a translucent diffuser over their left eye and daily intravitreal injection of a 1.5 mM (0.028%) dopamine solution prepared according to Example 1; • Chicks fitted with a translucent diffuser over their left eye and twice daily topical administration of a 1.5 mM (0.028%) dopamine solution prepared according to Example 1; • Chicks fitted with a translucent diffuser over their left eye and daily intravitreal injection of a 15 mM (0.28%) dopamine solution prepared according to Example 1; • Chicks fitted with a translucent diffuser over their left eye and twice daily topical administration of a 15 mM (0.28%) dopamine solution prepared according to Example 1; • Age-matched untreated control group.
For the drug treatments, the compositions were administered under light isoflurane anesthesia using intravitreal injection or topical administration.
Intravitreal injection was performed as follows: Using a 30 gauge needle attached to a Hamilton syringe, 10 μL (0.01 mL) of the test composition was injected into the vitreous chamber of the eye once daily.
Topical administration was performed as follows: Two drops of 40 μL (two drops of 0.04 mL, or 0.08 mL total) of the test composition was applied to the corneal surface of the eye using an eye drop dispenser. Drops were applied to the chicks twice daily.
To determine changes in the rate of eye growth and the development of myopia, changes in axial length was assessed. […] Axial length, anterior chamber depth and vitreal chamber depth were measured using A-scan ultrasonography (Biometer AL-100; Tomey Corporation, Nagoya, Japan). Statistical analysis of changes in axial length, anterior chamber depth and vitreal chamber depth between groups involved a one-way ANOVA test followed by a Student's T-test with Bonferroni correction. All data are presented as the mean±the standard deviation of the mean (SEM).

Structure (SMILES)	effect on excessive axial elongation associated with form-deprivation myopia (in words) (daily intravitreal injection of 0.25 mM atropine alone)	axial length (twice daily topical administration of 50 mM atropine solution alone) [mm]	protection relative to FDM-only [1] [%]	protection relative to FDM-only [2] [%]	axial length [3] [mm]	axial length [4] [mm]	axial length [5] [mm]	axial length [6] [mm]	protection relative to FDM-only [7] [%]	effect on excessive axial elongation associated with form-deprivation myopia (in words) (daily intravitreal injection of 0.15 mM dopamine-1,1,2,2-d4 alone)	effect on excessive axial elongation associated with form-deprivation myopia (in words) (daily intravitreal injection of 17 mM pirenzepine alone)
CN1[C@@H]2CC[C@H]1C[C@@H](OC(=O)C(CO)c1ccccc1)C2 (stereo partly drawn) [atropine]	significantly inhibited	8.79±0.09									
NCCc1ccc(O)c(O)c1 [dopamine, 2-(3,4-dihydroxyphenyl)ethylamine]			78	78	8.82±0.02	8.82±0.11	8.97±0.08	8.84±0.07	72		
[2H]C([2H])(N)C([2H])([2H])c1ccc(O)c(O)c1 [dopamine-1,1,2,2-d4, 2-(3,4-dihydroxyphenyl)ethyl-1,1,2,2,d4-amine]			92	103	8.77±0.11	8.72±0.06	8.88±0.10	8.85±0.14	71	significantly inhibited	
CN1CCN(CC(=O)N2c3ccccc3C(=O)Nc3cccnc32)CC1 [pirenzepine]											significantly inhibited
